Experimental data from US20110306775A1, “SYNTHESIS AND BIOLOGICAL EVALUATION OF 2',5'-DIMETHOXYCHALCONE DERIVATIVES AS MICROTUBULE-TARGETED ANTICANCER AGENTS” (KAOHSIUNG MEDICAL UNIVERSITY, priority 2010, published 2011).
Entries after “also recorded” stand apart in the source; their conditions may differ.

Assays:
Assay type in all cases: cell-based, human
[1] = system: NTUB1 cells; test: MTT cytotoxicity assay, NTUB1 cells
Excerpt: (§1) The cell lines of the present invention were an human urothelial carcinoma cell line (NTUB1), a human prostate cancer cell line (PC3), a human lung adenocarcinoma epithelial cell line (A549) and a SV-40 immortalized human uroepithelial cell line (SV-HUC1). However, the cell lines applied in the present invention includes but not limit in NTUB1, PC3, A549 and SV-HUC1 cells. Other cell lines having the same characteristics or not exactly the same characteristics are able to be used in the present invention. NTUB1, PC3 and A549 cells were maintained in RPMI 1640 and SV-HUC1 cells were maintained in F12 medium supplemented with 10% fetal bovine serum (FBS), 100 unit/mL penicillin-G, 100 μg/mL streptomycin and 2 mM glutamine. The cells were cultured at 37° C. in a humidified atmosphere containing 5% carbon dioxide.
(§2) The cytotoxic effect of compounds 1 to 18 of the present invention and cisplatin (positive control) on the cell lines was evaluated using 3-[4,5-dimethylthiazol-2-yl]-2,5-diphenyltetrazolium bromide (MTT) assay. Briefly, the cells were plated at a density of 1800 cells/well in 96-well plates and incubated in the presence of graded concentrations of compounds 1 to 18 and cisplatin at 37° C. for 72 hours. At the end of the culture period, 50 μL of MTT ([…] in PBS) was added to each well and allowed to react for 3 hours. Following centrifugation of plates at 1000 g for 10 minutes, media were removed and 150 μL dimethyl sulfoxide (DMSO) were added to each well. The proportions of surviving cells were determined by absorbance spectrometry at 540 nm. The cell viability was expressed as a percentage to the viable cells of control culture condition. The IC50 value of each group were calculated by the median-effect analysis and presented as mean±standard deviation (SD).

[2] = system: PC3 cells; test: MTT cytotoxicity assay, PC3 cells
Excerpt: as §1, §2

[3] = system: A549 cells; test: MTT cytotoxicity assay, A549 cells; conditions: FIG. 1, compared with NTUB1 and PC3
Excerpt: as §1
(§3) The cytotoxic effect of compounds 1 to 18 of the present invention and cisplatin (positive control) on the cell lines was evaluated using 3-[4,5-dimethylthiazol-2-yl]-2,5-diphenyltetrazolium bromide (MTT) assay. […] The proportions of surviving cells were determined by absorbance spectrometry at 540 nm. The cell viability was expressed as a percentage to the viable cells of control culture condition. The IC50 value of each group were calculated by the median-effect analysis and presented as mean±standard deviation (SD).

[4] = system: SV-HUC1 cells; test: MTT cytotoxicity assay, SV-HUC1 cells; conditions: FIG. 1, compared with NTUB1 and PC3
Excerpt: as §1, §3

[5] = system: NTUB1 cells; test: Cell cycle analysis (propidium iodide, flow cytometer), NTUB1 cells; conditions: NTUB1, 1 μM, 24 hours, FIG. 2
Experimental: (§4) DNA content was determined following propidium iodide (PI) staining of cells. Briefly, 6×10^5 cells were plated and treated with 20 μM cisplatin and various concentrations of compounds 11 and 15 for 24 hours, respectively. These cells were harvested by trypsinization, washed with 1×PBS, and fixed in ice-cold MeOH at −20° C. After overnight incubation, the cells were washed with PBS and incubated with 50 μg/mL propidium iodide and 50 μg/mL RNase A in PBS at room temperature for 30 minutes. The fractions of cells in each phase of cell cycle were analyzed using flow cytometer.

[6] = system: PC3 cells; test: Cell cycle analysis (propidium iodide, flow cytometer), PC3 cells; conditions: FIG. 3
Experimental: as §4

[7] = system: NTUB1 cells; test: Immuno-fluorescence staining of α-tubulin in NTUB1 cells
Experimental: In brief, NTUB 1 cells were seeded onto serum-coated coverslides. The cells were fixed with 2% formaldehyde/PBS for 20 minutes followed by cold methanol permeabilization for 3 minutes. The cells were washed with 1×PBS five minutes twice. The cells were then incubated with α-tubulin primary antibody overnight. The cells were washed with 1×PBS five minutes thrice. Goat anti-rabbit-rhodamine secondary antibody and 1 μg/mL 4′-6-diamidino-2-phenylindole (DAPI) were incubated for 1 hour at room temperature. The slides were washed with 1×PBS, mounted with mounting solution (80% glycerol/PBS) and photographed by microscopy.

[8] = system: α-tubulin; test: Western blot analysis for α-tubulin (soluble vs assembled) in NTUB1 cells; conditions: NTUB1, various concentrations, 6 hours, FIG. 4
Experimental: NTUB1 cells were seeded at a density of 1×10^6/[…] dishes and treated with indicated concentrations of test agents for 6 hours. The cells were then washed with cold PBS and lysed by adding lysis buffer (20 mM Tris-HCl (pH 6.8), 1 mM MgCl2, 2 mM EGTA (ethylene glycol tetraacetic acid), […] aprotinin, […], 1 mM phenylmethylsulfonyl fluoride, 1 mM orthovanadate, and 0.5% Nonidet P-40). The cell lysates were centrifuged at 15,000 g for 10 min at 4° C. Soluble and assembled tubulin could be separated in supernatant and pellet fraction, respectively. The supernatants and pellets were […] by the sodium dodecyl sulfate (SDS)-polyacrylamide gel electrophoresis assay. The relative amounts of tubulins transferred on the nitrocellulose membrane were detected by anti-tubulin monoclonal antibody and horseradish peroxidase (HRP)-conjugated secondary antibody. β-Actin was used for control. Detection of immunoreactive signal was accomplished with Western blot chemiluminescent reagent.

[9] = system: NTUB1 cells; test: Cell death and morphology of treated NTUB1 cells; conditions: NTUB1, different concentrations, 24 hours, data not shown

COc1ccc(OC)c(C(=O)C=Cc2ccc(C(=O)N3CCCC3)cc2)c1 [Compound 15, 4-tetrahydropyrrolylcarbamoyl-2′,5′-dimethoxychalcone]
cytotoxicity against NTUB1 cells (in words) [1]: significantly enhanced the cytotoxicity; also recorded: strongest cytotoxicity
IC50 ([1]; 72 hours, mean ± SD, n = 3-5): 1.26 ± 0.25 µM
cytotoxicity against PC3 cells (in words) [2]: significantly enhanced the cytotoxicity; also recorded: strongest cytotoxicity
IC50 ([2]; 72 hours, mean ± SD, n = 3-5): 0.53 µM
cytotoxicity against A549 cells (in words) [3]: more potent cytotoxic effect against NTUB1 and PC3 cells than that of A549 cells; also recorded: less cytotoxicity
cytotoxicity against human normal uroepithelial SV-HUC1 cells (in words) [4]: less cytotoxicity against human normal uroepithelial SV-HUC1 cells than those of NTUB1 and PC3 cells lines
apoptotic cell death [5]: increase in apoptotic cell death
cell cycle phase arrest ([5]; vs control): induced G1 phase arrest
apoptotic cells death ([6]; PC3, 0.3 μM): increase of the apoptotic cells death
apoptotic cells ([6]; PC3, 1 μM): increase of apoptotic cells
cells arrested at mitosis ([7]; NTUB1, 1 μM, data not shown): induced more NTUB1 cells arrested at mitosis
microtubule bundle formation ([7]; NTUB1, immuno-fluorescent microscopy, mimicked the effect of paclitaxel): induced the microtubule bundle formation
α-tubulin level in the pellet (assembled) [8]: increased in a dose-dependent manner
α-tubulin level in the supernatant (soluble) [8]: decreased level in a dose-dependent manner
cell death and cell shape after treatment [9]: more cell death and rounding up
